What was measured:
[1] = target: GCN2 kinase (Homo sapiens, UniProt Q9P2K8); assay: GCN2 enzyme inhibition assay (Transcreener ADP2 fluorescence polarization); assay type: biochemical; settings: Enzyme activity for compounds of Formula IV; Ki(app), 280 μM ATP, 25° C.
Summary of the method: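 Inhibition of 4 nM GCN2 was measured with compound up to 8 μM final, ATP 280 μM and (RS)7 peptide 200 μM over a 1 h, 25 °C reaction. ADP FP readout; IC50 and Ki(app) calculated from percent inhibition.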

[2] = target: intracellular GCN2 (phosphorylation of the GCN2 substrate eIF2α) (Homo sapiens, UniProt Q9P2K8); assay: GCN2 cellular inhibition assay (AlphaScreen SureFire P-eIF2α Ser51, borrelidin-treated U2OS cells); assay type: cell-based; settings: compounds of Formula IV; biomarker assay, phosphorylated eIF2α Ser51 in borrelidin-treated U2OS cells
Summary of the method: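 U2OS cells, adhered overnight, received compounds in 4-fold serial dilutions from 40 μM final, then 10 μM borrelidin for 1 h at 37 °C. Lysates were read by AlphaScreen for phospho-eIF2α Ser51; percent inhibition was set against borrelidin-only wells.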

Sequence of intracellular GCN2 (phosphorylation of the GCN2 substrate eIF2α) (Q9P2K8 whole entry): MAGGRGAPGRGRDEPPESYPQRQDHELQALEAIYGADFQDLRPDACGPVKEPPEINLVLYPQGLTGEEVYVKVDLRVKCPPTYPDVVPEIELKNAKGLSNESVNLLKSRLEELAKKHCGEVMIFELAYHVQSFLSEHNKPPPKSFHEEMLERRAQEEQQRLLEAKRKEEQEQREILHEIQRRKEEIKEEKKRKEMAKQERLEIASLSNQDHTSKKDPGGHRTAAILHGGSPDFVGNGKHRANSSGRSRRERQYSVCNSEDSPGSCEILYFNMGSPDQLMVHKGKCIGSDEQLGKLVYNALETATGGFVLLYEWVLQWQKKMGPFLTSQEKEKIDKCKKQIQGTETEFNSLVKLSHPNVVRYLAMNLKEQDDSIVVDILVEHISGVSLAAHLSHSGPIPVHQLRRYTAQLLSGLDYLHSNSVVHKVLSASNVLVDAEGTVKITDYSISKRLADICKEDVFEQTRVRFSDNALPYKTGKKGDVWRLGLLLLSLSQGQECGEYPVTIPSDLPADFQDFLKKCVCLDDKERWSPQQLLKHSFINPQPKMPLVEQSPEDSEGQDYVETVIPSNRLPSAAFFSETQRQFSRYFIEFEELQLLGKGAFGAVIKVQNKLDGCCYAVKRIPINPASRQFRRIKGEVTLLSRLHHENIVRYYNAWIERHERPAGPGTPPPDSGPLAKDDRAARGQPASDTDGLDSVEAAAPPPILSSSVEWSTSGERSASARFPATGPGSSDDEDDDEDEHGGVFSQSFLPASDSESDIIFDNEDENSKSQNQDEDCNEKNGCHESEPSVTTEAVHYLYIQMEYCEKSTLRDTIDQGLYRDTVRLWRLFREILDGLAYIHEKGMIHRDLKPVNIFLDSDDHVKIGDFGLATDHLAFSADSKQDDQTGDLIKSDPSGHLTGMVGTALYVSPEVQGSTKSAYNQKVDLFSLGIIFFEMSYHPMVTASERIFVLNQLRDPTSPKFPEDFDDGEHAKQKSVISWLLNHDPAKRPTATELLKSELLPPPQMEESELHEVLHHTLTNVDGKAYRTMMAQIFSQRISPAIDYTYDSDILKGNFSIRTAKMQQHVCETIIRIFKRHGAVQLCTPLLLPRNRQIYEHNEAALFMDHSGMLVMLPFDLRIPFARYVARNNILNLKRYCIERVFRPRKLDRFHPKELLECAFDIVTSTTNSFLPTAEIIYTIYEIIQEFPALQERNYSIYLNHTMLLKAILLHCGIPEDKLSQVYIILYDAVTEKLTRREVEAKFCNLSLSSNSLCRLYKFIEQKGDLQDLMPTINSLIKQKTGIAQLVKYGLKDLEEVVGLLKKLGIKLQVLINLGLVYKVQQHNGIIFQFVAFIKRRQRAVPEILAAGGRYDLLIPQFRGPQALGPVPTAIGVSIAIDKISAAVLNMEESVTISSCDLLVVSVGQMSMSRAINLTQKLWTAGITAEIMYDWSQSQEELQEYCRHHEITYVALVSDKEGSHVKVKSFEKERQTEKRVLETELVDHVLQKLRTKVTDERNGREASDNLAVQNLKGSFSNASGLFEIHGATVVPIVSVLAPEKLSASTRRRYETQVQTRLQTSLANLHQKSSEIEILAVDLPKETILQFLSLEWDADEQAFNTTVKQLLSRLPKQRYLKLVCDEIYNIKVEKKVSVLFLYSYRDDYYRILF
Sequence of GCN2 kinase (Q9P2K8 whole entry): as above

Row | SMILES | Ki [1] [nM] | IC50 [2] [nM]
1 | Fc1n[nH]cc1C1CCN(c2ccnc(-c3cnc4cnc(C(F)(F)F)cn34)n2)C1 (single isomer, unassigned) [IV-563, 3-(4-(3-(3-Fluoro-1H-pyrazol-4-yl)pyrrolidin-1-yl)pyrimidin-2-yl)-6-(trifluoromethyl)imidazo[1,2-a]pyrazine] | < 10 | 500 to 5000
2 | CP(C)(=O)C1CC(c2cn[nH]c2)CN(c2ccnc(-c3cnc4cnc(C(F)(F)F)cn34)n2)C1 (single isomer, unassigned) [IV-592, (5-(1H-Pyrazol-4-yl)-1-(2-(6-(trifluoromethyl)imidazo[1,2-a]pyrazin-3-yl)pyrimidin-4-yl)piperidin-3-yl)dimethylphosphine oxide] | < 10 | > 5000
3 | CC1C(C(N)=O)CCN1c1ccnc(-c2cnc3cnc(C(F)(F)F)cn23)n1 (single isomer, unassigned) [IV-614, 2-Methyl-1-(2-(6-(trifluoromethyl)imidazo[1,2-a]pyrazin-3-yl)pyrimidin-4-yl)pyrrolidine-3-carboxamide] | 100 to 1000 | > 5000
4 | CC1C(C(N)=O)CCN1c1ccnc(-c2cnc3cnc(C(F)(F)F)cn23)n1 (single isomer, unassigned) [IV-615, 2-Methyl-1-(2-(6-(trifluoromethyl)imidazo[1,2-a]pyrazin-3-yl)pyrimidin-4-yl)pyrrolidine-3-carboxamide] | 10 to 100 | 500 to 5000
5 | OC1CCN(c2ccnc(-c3cnc4cnc(C(F)(F)F)cn34)n2)CC1c1cn[nH]c1 (single isomer, unassigned) [IV-621, 3-(1H-Pyrazol-4-yl)-1-(2-(6-(trifluoromethyl)imidazo[1,2-a]pyrazin-3-yl)pyrimidin-4-yl)piperidin-4-ol] | < 10 | 500 to 5000
6 | OC1CCN(c2ccnc(-c3cnc4cnc(C(F)(F)F)cn34)n2)CC1c1cn[nH]c1 (single isomer, unassigned) [IV-622, 3-(1H-Pyrazol-4-yl)-1-(2-(6-(trifluoromethyl)imidazo[1,2-a]pyrazin-3-yl)pyrimidin-4-yl)piperidin-4-ol] | < 10 | 500 to 5000
7 | OC1CCN(c2ccnc(-c3cnc4cnc(C(F)(F)F)cn34)n2)CC1c1cn[nH]c1 (single isomer, unassigned) [IV-623, 3-(1H-Pyrazol-4-yl)-1-(2-(6-(trifluoromethyl)imidazo[1,2-a]pyrazin-3-yl)pyrimidin-4-yl)piperidin-4-ol] | < 10 | < 500
8 | OC1CCN(c2ccnc(-c3cnc4cnc(C(F)(F)F)cn34)n2)CC1c1cn[nH]c1 (single isomer, unassigned) [IV-624, 3-(1H-Pyrazol-4-yl)-1-(2-(6-(trifluoromethyl)imidazo[1,2-a]pyrazin-3-yl)pyrimidin-4-yl)piperidin-4-ol] | 10 to 100 | 500 to 5000
9 | FC(F)(F)c1cn2c(-c3nccc(N4CCC(c5c[nH]nc5C(F)(F)F)C4)n3)cnc2cn1 (single isomer, unassigned) [IV-628, 6-(Trifluoromethyl)-3-(4-(3-(3-(trifluoromethyl)-1H-pyrazol-4-yl)pyrrolidin-1-yl)pyrimidin-2-yl)imidazo[1,2-a]pyrazine] | 10 to 100 | 500 to 5000
10 | FC(F)(F)c1cn2c(-c3nccc(N4CCC(c5c[nH]nc5C(F)(F)F)C4)n3)cnc2cn1 (single isomer, unassigned) [IV-629, 6-(Trifluoromethyl)-3-(4-(3-(3-(trifluoromethyl)-1H-pyrazol-4-yl)pyrrolidin-1-yl)pyrimidin-2-yl)imidazo[1,2-a]pyrazine] | < 10 | 500 to 5000
11 | CP(C)(=O)C1CC(c2cn[nH]c2)CN(c2ccnc(-c3cnc4cnc(C(F)(F)F)cn34)n2)C1 (single isomer, unassigned) [IV-632, (5-(1H-Pyrazol-4-yl)-1-(2-(6-(trifluoromethyl)imidazo[1,2-a]pyrazin-3-yl)pyrimidin-4-yl)piperidin-3-yl)dimethylphosphine oxide] | 10 to 100 | > 5000
12 | CP(C)(=O)C1CC(c2cn[nH]c2)CN(c2ccnc(-c3cnc4cnc(C(F)(F)F)cn34)n2)C1 (single isomer, unassigned) [IV-633, (5-(1H-Pyrazol-4-yl)-1-(2-(6-(trifluoromethyl)imidazo[1,2-a]pyrazin-3-yl)pyrimidin-4-yl)piperidin-3-yl)dimethylphosphine oxide] | 10 to 100 | > 5000
13 | CC1C(c2cn[nH]c2)N(CCO)C(C)CN1c1ccnc(-c2cnc3cnc(C(F)(F)F)cn23)n1 (single isomer, unassigned) [IV-636, 2-(3,6-Dimethyl-2-(1H-pyrazol-4-yl)-4-(2-(6-(trifluoromethyl)imidazo[1,2-a]pyrazin-3-yl)pyrimidin-4-yl)piperazin-1-yl)ethan-1-ol] | < 10 | 500 to 5000
14 | CC1CN(c2ccnc(-c3cnc4cnc(C(F)(F)F)cn34)n2)C(C)C(c2c[nH]cn2)O1 (single isomer, unassigned) [IV-638, 2-(1H-Imidazol-4-yl)-3,6-dimethyl-4-(2-(6-(trifluoromethyl)imidazo[1,2-a]pyrazin-3-yl)pyrimidin-4-yl)morpholine] | 100 to 1000 | > 5000
15 | CC1CN(c2ccnc(-c3cnc4cnc(C(F)(F)F)cn34)n2)C(C)C(c2c[nH]cn2)O1 (single isomer, unassigned) [IV-639, 2-(1H-Imidazol-4-yl)-3,6-dimethyl-4-(2-(6-(trifluoromethyl)imidazo[1,2-a]pyrazin-3-yl)pyrimidin-4-yl)morpholine] | < 10 | < 500
16 | CC1CN(c2cncc(-c3cnc4cnc(C(F)(F)F)cn34)n2)C(C)C(c2cn[nH]c2)N1 (single isomer, unassigned) [IV-649, 3-(6-(2,5-Dimethyl-3-(1H-pyrazol-4-yl)piperazin-1-yl)pyrazin-2-yl)-6-(trifluoromethyl)imidazo[1,2-a]pyrazine] | 100 to 1000 | > 5000
17 | CC1CN(c2cncc(-c3cnc4cnc(C(F)(F)F)cn34)n2)C(C)C(c2cn[nH]c2)N1 (single isomer, unassigned) [IV-650, 3-(6-(2,5-Dimethyl-3-(1H-pyrazol-4-yl)piperazin-1-yl)pyrazin-2-yl)-6-(trifluoromethyl)imidazo[1,2-a]pyrazine] | < 10 | 500 to 5000
18 | CC1CN(c2ccnc(-c3cnc4cnc(C(F)(F)F)cn34)n2)CC(c2cn[nH]c2Cl)N1 (single isomer, unassigned) [IV-651, 3-[4-[3-(5-Chloro-1H-pyrazol-4-yl)-5-methyl-piperazin-1-yl]pyrimidin-2-yl]-6-(trifluoromethyl)imidazo[1,2-a]pyrazine] | < 10 | < 500
19 | CC1CN(c2ccnc(-c3cnc4cnc(C(F)(F)F)cn34)n2)CC(c2cn[nH]c2Cl)N1 (single isomer, unassigned) [IV-652, 3-[4-[3-(5-Chloro-1H-pyrazol-4-yl)-5-methyl-piperazin-1-yl]pyrimidin-2-yl]-6-(trifluoromethyl)imidazo[1,2-a]pyrazine] | 10 to 100 | 500 to 5000
20 | Cc1cc(N2CC(C)NC(c3cn[nH]c3)C2C)nc(-c2cnc3cnc(C(F)(F)F)cn23)n1 (single isomer, unassigned) [IV-669, 3-(4-(2,5-Dimethyl-3-(1H-pyrazol-4-yl)piperazin-1-yl)-6-methylpyrimidin-2-yl)-6-(trifluoromethyl)imidazo[1,2-a]pyrazine] | 100 to 1000 | > 5000
